Experimental findings from ChEMBL document CHEMBL1141921, “Phthalazinones. Part 1: The design and synthesis of a novel series of potent inhibitors of poly(ADP-ribose)polymerase” (Bioorg Med Chem Lett, 2005) are described below.

Where only a bound is given, the exact number is not on record here.

For data set [1], the target named is Poly [ADP-ribose] polymerase 1 (Homo sapiens, UniProt P09874). The data set is described as follows: Inhibitory concentration against human poly (ADP-ribose) polymerase 1 (PARP-1).
Poly [ADP-ribose] polymerase 1, sequence (P09874 whole entry): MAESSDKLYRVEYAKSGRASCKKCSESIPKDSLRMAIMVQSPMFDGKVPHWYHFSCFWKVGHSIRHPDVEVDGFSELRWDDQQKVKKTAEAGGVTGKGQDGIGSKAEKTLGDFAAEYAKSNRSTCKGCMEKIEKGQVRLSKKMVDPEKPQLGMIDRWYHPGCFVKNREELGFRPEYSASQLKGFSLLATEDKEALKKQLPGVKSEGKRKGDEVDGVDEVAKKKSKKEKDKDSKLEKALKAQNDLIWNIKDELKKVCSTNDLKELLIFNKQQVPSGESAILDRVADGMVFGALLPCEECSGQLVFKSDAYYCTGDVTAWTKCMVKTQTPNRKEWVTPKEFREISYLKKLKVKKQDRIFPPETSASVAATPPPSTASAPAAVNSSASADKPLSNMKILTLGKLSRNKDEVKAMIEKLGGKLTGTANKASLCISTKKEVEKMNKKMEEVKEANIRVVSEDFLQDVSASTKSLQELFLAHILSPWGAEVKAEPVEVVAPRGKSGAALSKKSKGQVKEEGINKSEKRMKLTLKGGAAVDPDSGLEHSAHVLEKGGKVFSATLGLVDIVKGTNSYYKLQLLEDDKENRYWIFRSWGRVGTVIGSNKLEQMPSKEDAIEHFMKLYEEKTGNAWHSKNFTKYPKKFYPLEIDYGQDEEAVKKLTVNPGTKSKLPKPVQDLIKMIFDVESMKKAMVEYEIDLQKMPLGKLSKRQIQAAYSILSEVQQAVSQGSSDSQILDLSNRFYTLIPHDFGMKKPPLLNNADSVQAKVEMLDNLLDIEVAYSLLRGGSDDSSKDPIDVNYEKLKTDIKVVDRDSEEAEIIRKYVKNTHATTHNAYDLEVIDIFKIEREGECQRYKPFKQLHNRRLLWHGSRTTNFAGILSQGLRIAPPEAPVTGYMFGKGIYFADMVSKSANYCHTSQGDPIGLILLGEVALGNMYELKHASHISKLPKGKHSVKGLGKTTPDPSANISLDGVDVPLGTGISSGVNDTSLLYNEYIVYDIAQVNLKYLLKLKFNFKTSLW
The test system of a further data set is HeLa. As to the kind of experiment: Potentiation factor (ratio of the IC50 growth curve for the alkylating agent, methyl methanesulfonate (MMS) divided by the IC50 of the curve of MMS + PARP inhibitor) against human HeLa B cells at a concentration of 200 nM. It is filed as functional.
A short description of data set [2]: In vitro metabolic stability was measured in human liver microsomes. It is filed as ADME, Microsome.
Data set [3] is described as follows: In vitro metabolic stability was measured in mouse liver microsomes. The class given is ADME, Microsome.

For orientation: IC50 means the concentration needed to halve the response being measured. The low end stands for higher potency, the high end for lower potency.

`CC(C)C(=O)Nc1cccc(Cc2nnc(O)c3ccccc23)c1` gave an IC50 in data set [1] of 370 nM.

On to `CCOC(=O)Nc1cccc(Cc2nnc(O)c3ccccc23)c1`, for which the IC50 in data set [1] is 116 nM.

`O=C(Nc1cccc(Cc2nnc(O)c3ccccc23)c1)c1ccc(-n2cccn2)nc1` displayed an IC50 in data set [1] of 47 nM.

In data set [1], `CCS(=O)(=O)Nc1cccc(Cc2n[nH]c(=O)c3ccccc23)c1` had an IC50 of 290 nM.

In data set [1], `Cc1noc(-c2cccc(Cc3nnc(O)c4ccccc34)c2)n1` registered an IC50 of 189 nM. This IC50 is about 1.5-fold lower than that of the compound before.

Regarding `O=C1CCC(=O)N1c1cccc(Cc2n[nH]c(=O)c3ccccc23)c1`, the PF50 in the data set with HeLa came to 1.74. This compound gave a Cli in data set [2] of less than 0.05 ml min-1 g-1 liver.

For the compound `O=C(Nc1cccc(Cc2nnc(O)c3ccccc23)c1)C(F)(F)F`, 13 nM corresponded to half-maximal inhibition in data set [1] (IC50). Further, the Cli in data set [3] is more than 50 ml min-1 g-1 liver.

Regarding `O=C1CCC(=O)N1c1cc(Cc2n[nH]c(=O)c3ccccc23)ccc1Cl`, the PF50 in the data set with HeLa was 1.5.

For `CN1CC(=O)N(c2cc(Cc3nnc(O)c4ccccc34)ccc2F)C(=O)C1`, the PF50 in the data set with HeLa stood at 3.1.

As to `O=C1CCC(=O)N1c1cc(Cc2n[nH]c(=O)c3ccccc23)ccc1F`, in the data set with HeLa, the PF50 worked out at 5.62. Further, inhibition in data set [1] was half-maximal at 5 nM (IC50). Moreover, in data set [3], the Cli was less than 1 ml min-1 g-1 liver.

Regarding `O=C1CC(c2ccccc2)C(=O)N1c1cc(Cc2n[nH]c(=O)c3ccccc23)ccc1F` (configuration not stated), the PF50 with HeLa is 5.4.

`O=C(Nc1cccc(Cc2n[nH]c(=O)c3ccccc23)c1)C1CC1`: the midpoint of inhibition in data set [1], the IC50, lay at 55 nM.

As to `O=C1CCCN1c1cccc(Cc2n[nH]c(=O)c3ccccc23)c1`, the Cli in data set [3] amounted to 4.9 ml min-1 g-1 liver.

In the case of `CCCNC(=O)Nc1cccc(Cc2n[nH]c(=O)c3ccccc23)c1`, in data set [1], the IC50 was 540 nM.

Turning to `CC1(C)CC(=O)N(c2cc(Cc3nnc(O)c4ccccc34)ccc2F)C1=O`, the PF50 with HeLa was found to be 2.9.

On to `O=C1C=CC(=O)N1c1cccc(Cc2nnc(O)c3ccccc23)c1`, for which the PF50 in the data set with HeLa came out at 0.94.

Take `O=C1CCCC(=O)N1c1cc(Cc2n[nH]c(=O)c3ccccc23)ccc1F`: the PF50 in the data set on HeLa stood at 3.6.

With `O=C1c2ccccc2C(=O)N1c1cccc(Cc2n[nH]c(=O)c3ccccc23)c1`, the IC50 in data set [1] is 180 nM.

Consider `CC1CC(=O)N(c2cc(Cc3n[nH]c(=O)c4ccccc34)ccc2F)C1=O` (configuration not stated), for which, in the data set on HeLa, the PF50 is given as 18.2.

For the compound `COc1ccc(Cc2n[nH]c(=O)c3ccccc23)cc1N1C(=O)CCC1=O`, the PF50 with HeLa was determined as 1.5. Besides, the IC50 in data set [1] was 33 nM.

As to `CC(=O)Oc1cccc(Cc2n[nH]c(=O)c3ccccc23)c1`, inhibition in data set [1] was half-maximal at 36 nM (IC50).

`CCC(=O)Nc1cccc(Cc2n[nH]c(=O)c3ccccc23)c1` gave an IC50 in data set [1] of 20 nM. In data set [3], this compound showed a Cli of 12 ml min-1 g-1 liver.

In data set [1], `O=C(Nc1cccc(Cc2n[nH]c(=O)c3ccccc23)c1)c1ccc(-c2ccsc2)s1` had an IC50 of 56 nM. In other words, the double-digit nanomolar range.

In turn, `CCNC(=O)c1cccc(Cc2n[nH]c(=O)c3ccccc23)c1` gave an IC50 in data set [1] of 50 nM. In addition, the Cli in data set [3] is less than 1 ml min-1 g-1 liver.

On to `COc1ccc(-n2cc(C(=O)Nc3cccc(Cc4n[nH]c(=O)c5ccccc45)c3)c(C)n2)cc1`, for which the IC50 in data set [1] worked out at 10 nM.

In data set [1], `Cc1nc(-c2ccccc2)sc1C(=O)Nc1cccc(Cc2n[nH]c(=O)c3ccccc23)c1` returned an IC50 of 27 nM.

The compound `CCCC(=O)Nc1cccc(Cc2n[nH]c(=O)c3ccccc23)c1` yielded an IC50 in data set [1] of 90 nM.

On to `O=C1C2CC2C(=O)N1c1cc(Cc2nnc(O)c3ccccc23)ccc1F` (configuration not stated), for which the PF50 in the data set on HeLa stood at 14.4. The IC50 in data set [1] is 5 nM.

Consider `O=c1[nH]nc(Cc2ccccc2)c2ccccc12`, for which the IC50 in data set [1] amounted to 770 nM.
